Source: US6613317B1, “Volatile attractants for diabrotica species” (priority 1988, dated 2003)
Marks after values point to notes of the source that are not given here.

Columns and labels:
[1] = system: southern corn rootworm (SCR) adults; assay: Sticky trap attraction in sweet corn plots (Example 1); type: in vivo, Diabrotica undecimpunctata howardi; settings: for Mean number of SCR per trap (±standard deviation): n = 4
Method in brief: (§1)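 Field trapping in sweet-corn plots beside a Blue Hubbard squash trap crop; lures on mineral-oil-impregnated cotton wicks atop sticky paper-carton traps on 1-m posts, 4 replicates in randomized complete blocks. Beetles counted after 24 h; VIPAE/VIP/TIC mixtures and single components at 1–300 mg per trap, ANOVA/Duncan at P=0.05.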

[2] = system: western corn rootworm (WCR) adults; assay: as above; type: in vivo, Diabrotica virgifera virgifera; settings: for Mean number of WCR per trap (±standard deviation): n = 4
Method in brief: as §1

[3] = system: D. u. howardi adults; type: in vivo, Diabrotica undecimpunctata howardi; settings: TEX×PEP bait with 0.1% methomyl alone or with 1% veratrole added
Source text: A noncucurbit carrier, 10-mesh corn grits (71% of which passed through a 2-mm screen), was obtained from Illinois Cereal Mills, Paris, Ill. (designated as pesticide carrier grits, 980). This carrier was impregnated with different levels of cucurbitacins by addition of varying amounts of a chloroform extract of AND×MAX fruit containing 0.12% cucurbitacins B and D (Metcalf, et al., Proc. Natl. Acad. Sci. USA, 77:3769-3772 (1980), Metcalf, et al., Environ. Entomol., 11:921-927 (1982)). The cucurbitacin-containing areas were scraped from plates, extracted in anhydrous methanol, centrifuged, and the UV absorption at 210 nm determined by UV spectrophotometry. Content of cucurbitacins was quantified from standard curves of pure cucurbitacins B, D, E and I, and E-glycoside (Metcalf, et al., Proc. Natl. Acad. Sci. USA, 77:3769-3772 (1980), Metcalf, et al., Environ. Entomol., 11:921-927 (1982)).
The various dried, ground, and insecticide-treated baits were given preliminary field evaluation by placing uniform amounts in petri-dish halves (150-mm diameter) that were placed at random on the ground in cucurbit and corn rows heavily infested ith SCR, WCR, and SCB adults. Ten dishes were used for each treatment; the maximum dosage of dried baits used was 300 mg per dish, equivalent to […]. Mortality counts of adult beetles in the dishes were made after 20-40 h.

[4] = system: D. barberi; assay: Sticky trap attraction in prairie habitat, Trelease Woods (Example 2); type: in vivo, Diabrotica barberi; settings: August 11, 1987; 100 mg per trap; n = 4
Method in brief: (§2)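 Lure-dosed cotton wicks (solids in acetone; untreated controls) on TangleTrap-coated cartons atop 1 m posts, four replicates 10 m apart in relict prairie, mid-August over two years. Read-out: mean beetles caught after 24-h; log-transformed ANOVA with Duncan's multiple range test.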

[5] = system: D. cristata; assay: as above; type: in vivo, Diabrotica cristata; settings: August 11, 1987; 100 mg per trap; n = 4
Method in brief: as §2

[6] = system: D. v. virgifera; assay: as above; type: in vivo, Diabrotica virgifera virgifera; settings: August 11, 1987; 100 mg per trap; n = 4
Method in brief: as §2

[7] = system: D. u. howardi; assay: as above; type: in vivo, Diabrotica undecimpunctata howardi; settings: August 11, 1987; 100 mg per trap; n = 4
Method in brief: as §2

[8] = system: D. barberi; assay: Sticky trap attraction along hybrid corn, Pomology South Farms (Example 2); type: in vivo, Diabrotica barberi; settings: 100 mg per trap, n = 4
Protocol: (§3) The candidate lures in all experiments were purchased commercially and exceeded 98% purity. The test chemicals were applied by capillary micropipettes to cotton dental wicks which were attached to the tops of 1.0 liter cylindrical paper cartons covered with TangleTrap™ (Tanglefoot Co., Grand Rapids, Mich.). The sticky trap techniques used were as described in Example 1. Cinnamyl alcohol and para-methoxycinnamaldehyde, which are solids, were dissolved in glass-distilled acetone prior to dosing the cotton wicks. All treatments were applied at a dosage of 100 mg per trap. 1,2,4-trimethoxybenzene, indole, and trans-cinnamaldehyde were mixed in a ratio of 1:1:1, by weight, immediately prior to dosing the cotton wicks. Control traps had untreated cotton wicks. Four replicates of treated and untreated traps were randomly positioned 10 meters apart on top of 1 m high posts along the border of a eight foot wide strip cut through the middle of a 4.05 ha relict prairie at Trelease Woods (ca. two miles northeast of Urbana, Ill.). The field consisted primarily of Andropogon gerardii Vitman (big bluestem) and a variety of composites. The tests were conducted in mid-August of two years and were timed to coincide with the presence of D. cristata and D. barberi adults in the flower heads of Canada thistle (Carduus arvensis Robson). In the second year, several new attractants of D. v. virgifera and D. barberi were tested in Trelease Woods and along the edge of a 0.8 ha field of hybrid corn located at the Pomology South Farms, Urbana, Ill. Attraction of Diabrotica species to the various lures was measured by the mean number of beetles caught after 24-h. On one date in late August of the first year, D. cristata and D. barberi were removed from the traps and sexed in the laboratory. The significance of treatments in all tests was determined by an analysis of variance and the individual means were separated by Duncan's multiple range test (Statistical Package for Social Science, Nie, et al., SPSS: statistical package for the social sciences, 2nd ed. McGraw-Hill, New York (1975). Data were logarithmically transformed for statistical analysis and the means and standard deviations are presented for the untransformed data.

[9] = system: D. v. virgifera; assay: as above; type: in vivo, Diabrotica virgifera virgifera; settings: 100 mg per trap, n = 4
Protocol: as §3

[10] = system: D. u. howardi; assay: as above; type: in vivo, Diabrotica undecimpunctata howardi; settings: 100 mg per trap, n = 4
Protocol: as §3

[11] = system: western corn rootworm (WCR) adults; assay: Sticky trap attraction in corn, estragole analogues (Example 3); type: in vivo, Diabrotica virgifera virgifera; settings: for Mean number of WCR adults per sticky trap (±standard deviation) after 24 hours / Mean number of WCR (±standard deviation) per sticky trap after 24 hours: 100 mg per trap, n = 4
Method in brief: (§4)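 Cotton wicks dosed with 100 mg or 100 μL attractant per trap on TangleTrap-coated cartons, four replicates 10 m apart on 1 m posts at field edges of hybrid or sweet corn. Mean beetles caught after ~24 h; log-transformed ANOVA with Duncan's test, P=0.05.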

[12] = system: southern corn rootworm (SCR) adults; assay: as above; type: in vivo, Diabrotica undecimpunctata howardi; settings: 100 mg per trap, n = 4
Method in brief: as §4

[13] = system: northern corn rootworm (NCR) adults; assay: as above; type: in vivo, Diabrotica barberi; settings: 100 mg per trap, n = 4
Protocol: (§5) Test chemicals were applied by capillary micropipettes to cotton dental wicks that were attached to tops of 1.0 liter cylindrical paper cartons covered with TangleTrap™, Grand Rapids, Mich. The trapping techniques used were as previously described in Example 1. Cinnamyl alcohol, 4-methoxycinnamaldehyde, cinnamyl acetate, and 4-(4′methoxyphenyl)-3-butene-2-one which are solids at ambient temperature were prepared as standard w/v solutions in acetone prior to dosing the cotton wicks. All treatments were made at a dosage of 100 mg or 100 μL of attractant per trap. Control traps had untreated wicks. Four replicates of treated and untreated traps were positioned randomly 10 meters apart on top of 1 m high posts along the edges of 25-50 ha. fields of hybrid corn (Zea mays), infested with adult NCR, SCR, and WCR beetles. Several experiments detailed in the Tables were made in a 0.4 ha plot of sweet corn (Illini X-tra Sweet).
(§6) Attraction of Diabrotica species adults of the sticky traps was measured by the mean number of beetles caught after 1 day (ca. 24 hours) exposure. The significance of the treatments was determined by analysis of variance and the individual means were separated by Duncan's multiple range test (Statistical Package for the Social Sciences, Nie, et al., 2nd. ed. McGraw-Hill, New York (1975). The data was logarithmically transformed for statistical analysis. Means and standard deviations are presented for the untransformed data. Significance levels were set at P=0.05 for all statistical analyses.

[14] = system: northern corn rootworm (NCR); assay: Sticky trap attraction in corn, phenylethanol analogues (Example 6); type: in vivo, Diabrotica barberi; settings: 100 mg per trap, four replicates, 24 hour
Protocol: as §5, with “chemicals (purchased from Aldrich Chemical Co.; Milwaukee, Wis.)” for “chemicals”, “Unless otherwise indicated, all” for “Cinnamyl alcohol, 4-methoxycinnamaldehyde, cinnamyl acetate, and 4-(4′methoxyphenyl)-3-butene-2-one which are solids at ambient temperature were prepared as standard w/v solutions in acetone prior to dosing the cotton wicks. All”
as §6

[15] = system: western corn rootworm (WCR); assay: as above; type: in vivo, Diabrotica virgifera virgifera; settings: 100 mg per trap, four replicates, 24 hour
Protocol: as §5, with “chemicals (purchased from Aldrich Chemical Co.; Milwaukee, Wis.)” for “chemicals”, “Unless otherwise indicated, all” for “Cinnamyl alcohol, 4-methoxycinnamaldehyde, cinnamyl acetate, and 4-(4′methoxyphenyl)-3-butene-2-one which are solids at ambient temperature were prepared as standard w/v solutions in acetone prior to dosing the cotton wicks. All”
as §6

[16] = system: WCR; settings: in vivo; cited from earlier work
[17] = August 4, second year, each compound 20 mg per trap
[18] = August 7, second year, each compound 20 mg per trap
[19] = August first year, South Farms, 24 h, single compounds 100 mg per trap, mixture 20 mg of each component
[20] = August first year, single compounds 100 mg per trap, mixture 20 mg each component

Compound: COc1ccccc1OC [Veratrole, 1,2-dimethoxybenzene]
- relative percent activity (SCR) as compared with the highest mean value for the test date [1, 17]: 15%
- Mean number of SCR per trap (±standard deviation) [1, 17]: 5.8 ± 3.4 per trap
- relative percent activity (SCR) as compared with the highest mean value for the test date [1, 18]: 20%
- Mean number of SCR per trap (±standard deviation) [1, 18]: 8.8 ± 2.l
- Mean number of SCR per trap (±standard deviation) [1, 19]: 6.8 ± 3.6 per trap
- relative percent activity of the mean SCR trap catch as compared with the highest mean value in the column [1, 20]: 33%
- relative percent activity (WCR) as compared with the highest mean value for the test date [2, 17]: 39%
- Mean number of WCR per trap (±standard deviation) [2, 17]: 20.0 ± 5.7 per trap
- relative percent activity (WCR) as compared with the highest mean value for the test date [2, 18]: 59%
- Mean number of WCR per trap (±standard deviation) [2, 18]: 18.5 ± 7.2 per trap
- Mean number of WCR per trap (±standard deviation) [2, 19]: 1.5 ± 1.0 per trap
- relative percent activity of the mean WCR trap catch as compared with the highest mean value in the column [2, 20]: 22%
- mean (±SD) dead SCR beetles for 10 dishes [3]: 63.1±39.9

Compound: COc1ccc(C=CC=O)cc1 [XI, 4-methoxycinnamaldehyde]
- Mean number of D. barberi per day (±standard deviation) [4]: 1.0 ± 0.8^a per day
- Mean number of D. cristata per day (±standard deviation) [5]: 11.0 ± 6.7^b per day
- Mean number of D. v. virgifera per day (±standard deviation) [6]: 8.5 ± 5.3^b per day
- Mean number of D. u. howardi per day (±standard deviation) [7]: 0.3 ± 0.5^a per day
- Mean number of D. barberi per stick trap per day (±standard deviation) in corn ([8]; August 7): 0.3 ± 0.5^a per stick trap per day
- Mean number of D. barberi per stick trap per day (±standard deviation) in corn ([8]; August 18): 1.0 ± 0.8^a per stick trap per day
- Mean number of D. v. virgifera per stick trap per day (±standard deviation) in corn ([9]; August 7): 375.0 ± 50.0^d per stick trap per day
- Mean number of D. v. virgifera per stick trap per day (±standard deviation) in corn ([9]; August 18): 178.8 ± 32.0^c per stick trap per day
- Mean number of D. u. howardi per stick trap per day (±standard deviation) in corn ([10]; August 7): 1.5 ± 2.4^a per stick trap per day
- Mean number of D. u. howardi per stick trap per day (±standard deviation) in corn ([10]; August 18): 0.0^a per stick trap per day
- period over which treated wicks remained highly attractive to WCR ([11]; 100 mg on wick, transferred daily to fresh traps, August sunlight, two heavy rainstorms): ≥ 16 days
- Mean number of WCR adults per sticky trap (±standard deviation) after 24 hours ([11]; August 4 second year): 204.7 ± 34.6^e per sticky trap
- Mean number of WCR adults per sticky trap (±standard deviation) after 24 hours ([11]; August 5 first year): 143.7 ± 75.3^e per sticky trap
- Mean number of WCR (±standard deviation) per sticky trap after 24 hours ([11]; August 7 (Table 11)): 375.0 ± 50.0^c per sticky trap
- Mean number of WCR (±standard deviation) per sticky trap after 24 hours ([11]; August 18 (Table 11)): 178.7 ± 31.9^b per sticky trap
- Mean number of WCR adults per sticky trap (±standard deviation) after 24 hours ([11]; September 11): 22.2 ± 23.1^b per sticky trap
- effectiveness relative to previously described WCR attractants (indole, estragole) ([11]; by LR): about 100 fold
- limit of response (LR) for attraction of WCR adults in corn ([11]; on cotton wicks, logarithmically decreasing amounts): ~0.03 mg
- Mean number of SCR adults per sticky trap (±standard deviation) after 24 hours ([12]; August 4 second year): 9.0 ± 6.5^b per sticky trap
- Mean number of SCR adults per sticky trap (±standard deviation) after 24 hours ([12]; August 5 first year): 42.7 ± 27.6^b per sticky trap
- Mean number of SCR (±standard deviation) per sticky trap after 24 hours ([12]; August 7 (Table 11)): 1.5 ± 2.4^a per sticky trap
- Mean number of SCR (±standard deviation) per sticky trap after 24 hours ([12]; August 18 (Table 11)): 0.0^a per sticky trap
- Mean number of SCR adults per sticky trap (±standard deviation) after 24 hours ([12]; September 11): 1.5 ± 1.3^ab per sticky trap
- Mean number of NCR (±standard deviation) per sticky trap after 24 hours ([13]; August 7 (Table 11)): 0.0^a per sticky trap
- Mean number of NCR (±standard deviation) per sticky trap after 24 hours ([13]; August 18 (Table 11)): 1.0 ± 0.8^a per sticky trap
- Mean number of NCR per trap (± standard deviation) ([14]; Table 15): 6.4 ± 4.9a per trap
- Mean number of NCR per trap (± standard deviation) ([14]; Table 17): 2.5 ± 1.9a per trap
- Mean number of WCR per trap (±standard deviation) ([15]; Table 15): 567.5 ± 111.6b per trap
- Mean number of WCR per trap (± standard deviation), column WCW ([15]; Table 17): 360.2 ± 181.3c per trap
- LR for WCR, most effective volatile attractants yet identified [16]: 0.03 mg
